{"source": "patent US20260285847A1", "about": "“SYMMETRIC AMINOINDOLE-LINKED TRIAZINE FOR A DUAL EFFECT ON ALPHA-SYNUCLEIN AND TAU ISOFORM 2N4R FIBRILLIZATION” (Purdue Research Foundation, priority 2023, published 2026)", "key": {"tau isoform 2N4R [1]": {"biological_target": "T1, tau isoform 2N4R (Homo sapiens, UniProt P10636)", "T1 construct": "made in house; host or cells: E. coli BL21(DE3)", "T1 sequence (P10636 1-441 isoform P10636-8)": "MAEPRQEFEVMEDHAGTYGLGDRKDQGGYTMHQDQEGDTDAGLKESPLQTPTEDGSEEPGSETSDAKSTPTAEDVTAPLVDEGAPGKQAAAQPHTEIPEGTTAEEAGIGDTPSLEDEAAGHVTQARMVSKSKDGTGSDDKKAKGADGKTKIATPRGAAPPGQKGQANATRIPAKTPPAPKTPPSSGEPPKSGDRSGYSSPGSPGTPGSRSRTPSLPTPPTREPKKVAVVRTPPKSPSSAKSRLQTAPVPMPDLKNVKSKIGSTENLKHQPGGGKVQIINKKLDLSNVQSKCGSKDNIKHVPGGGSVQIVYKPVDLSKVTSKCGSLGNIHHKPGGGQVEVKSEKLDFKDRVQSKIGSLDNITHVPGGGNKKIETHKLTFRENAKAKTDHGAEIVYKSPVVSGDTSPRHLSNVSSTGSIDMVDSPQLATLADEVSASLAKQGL", "test": "PICUP cross-linking assay of tau oligomer formation", "assay_type": "biochemical", "protocol": "(§1) Chemical and peptide source. DMSO and thioflavin-T (ThT) were purchased from Alfa Aesar (Ward Hill, MA). Procuration of recombinant α-syn was from rPeptide (WatKinsville, GA). The recombinant p-tau isoform 1N4R was prepared as published previously.^31, 36 Concerning the preparation of tau 2N4R, bacterial expression plasmid consisting of the vector pRK172 carrying a cDNA encoding the human Tau 2N4R isoform was a kind gift of Dr. David Eliezer (Weill Cornell Medicine). For protein expression, E. coli BL21(DE3) cells were transformed with the plasmid and grown in LB media supplemented with ampicillin (100 μg/mL). Protein over-expression was induced by the addition of 1 mM IPTG for 4 h at 37° C., and cells were pelleted by centrifugation at 6,000 g for 15 min at 4° C. The cells were resuspended in lysis buffer (20 mM MES, 400 mM NaCl, 0.2 mM MgCl2, 1 mM EGTA, protease inhibitor cocktail (P8340, Sigma Aldrich), 0.25 mg/mL lysozyme, and 1 μg/mL DNase I, pH 6.8) and lysed by a French press cell disruptor at 4° C., and the lysate was boiled for 20 min. Denatured proteins were pelleted by centrifugation at 30,000 g for 30 min at 4° C., and the supernatant was dialyzed overnight against cation exchange buffer (20 mM MES, 50 mM NaCl, 1 mM MgCl2, 1 mM EGTA, 2 mM DTT, 0.1 mM PMSF, pH 6.8). The dialysate was loaded onto a HiPrep SP HP column, and proteins were eluted with a linear gradient ranging from 50 mM to 1 M NaCl. Fractions containing tau isoform 2N4R were pooled, and the resulting protein solution was dialyzed against PBS (pH 7.4) and stored at −80° C.\nPICUP is a technique in which oligomer formation is induced by cross-linking. To induce oligomerization by cross-linking, α-syn (from Rpeptide, LLC) and tau isoform 2N4R were diluted in 10 mM phosphate buffer (pH 7.4) to reach a final concentration of 10 μM. Different compounds were added to the protein solution at a final concentration of 50 μM, resulting in a molar ratio of 1:5. […]"}, "tau isoform 2N4R [2]": {"biological_target": "T1, tau isoform 2N4R", "test": "TEM of tau isoform 2N4R fibrils", "assay_type": "biochemical", "details": "protein 60 μM, compound 600 μM (1:10), 24 hours at 37° C.", "protocol": "as §1\nTo confirm the general anti-fibrillar effect of compound 10, transmission electron microscopy (TEM) was used as an orthogonal assay. After incubating recombinant proteins (at 60 μM) with 600 μM compound 10 for 24 hours at 37° C., TEM was utilized to detect fibril formation.^32 A volume of 10 μL was applied on a 400-mesh Formvar-carbon-coated copper grid (Electron Microscopy Sciences, Hatfield, PA). The grids were incubated for 1 minute and washed three times with distilled water. […]"}, "[3]": {"test": "α-syn inclusion formation in dox-inducible neuroblastoma cells", "assay_type": "cell-based", "details": "human, m17d neuroblastoma cells; read-out: concentration from which a small level of toxicity is seen (cell confluence)", "protocol": "(§2) The dox-inducible neuroblastoma cell line M17D-TR/αS3K::YFP was used to evaluate the effect of compounds in preventing the formation of inclusion following induction with Dox. Dox-inducible neuroblastoma cells M17D-TR/αS-3K::YFP have been used previously. 96-well plates were used with cellular density of 30,000 cells per well. Compounds were added after 24 h and aS-3K::YFP transgene expression was induced […]. Induction was done by adding 1 μg per mL (final concentration) dox to culture media. Cells were incubated in the Incucyte Zoom 2000 platform (Essen Biosciences) and images (green, bright field) were taken continuously. Endpoint analysis of inclusion formation or growth was performed 48 h after induction (96 h after plating). The Incucyte processing definition ‘Inclusions’ was created as follows: Parameters, Fixed Threshold, Threshold (GCU) 50; Edge Split On, Edge Sensitivity 100; Cleanup, Hole Fill (μm^2): 10, Adjust Size (pixels): 0; Filters, Area (μm^2): max 50, Mean Intensity: min 60, Integrated Intensity: min 2000. […] As described previously for the evaluation of protein expression by SDS-PAGE and Western Blotting in the LiCor system, αS-specific monoclonal antibody 4B12 (Thermofisher, Waltham, MA; 1:1000) and a polyclonal antibody to GAPDH (Sigma-Aldrich, St. Louis, MO, G9545; 1:5000) were used."}, "[4]": {"system": "M17D-TR/αS3K::YFP neuroblastoma cells", "test": "α-syn inclusion formation in dox-inducible neuroblastoma cells", "assay_type": "cell-based", "protocol": "as §2"}, "α-syn": {"biological_target": "T2, α-syn (Homo sapiens, UniProt P37840)", "T2 construct": "purchased rPeptide", "test": "Transmission electron microscopy (TEM) of α-syn fibrils", "assay_type": "biochemical", "details": "protein 60 μM, compound 600 μM (1:10), 24 hours at 37° C.", "protocol": "To confirm the general anti-fibrillar effect of compound 10, transmission electron microscopy (TEM) was used as an orthogonal assay. After incubating recombinant proteins (at 60 μM) with 600 μM compound 10 for 24 hours at 37° C., TEM was utilized to detect fibril formation.^32 A volume of 10 μL was applied on a 400-mesh Formvar-carbon-coated copper grid (Electron Microscopy Sciences, Hatfield, PA). The grids were incubated for 1 minute and washed three times with distilled water. They were carefully air-dried and incubated for 1 minute in a fresh solution of 1% uranyl acetate. Samples were air-dried and observed using a transmission microscope. Visualization of the grids was performed with transmission electron microscopy (JEOL 1400 Flash, Japan). Acquisition of pictures was performed with the following settings: accelerating voltage of 100 kV and magnification of 40k."}, "tau isoform 2N4R [5]": {"biological_target": "T1, tau isoform 2N4R", "test": "ThT fluorescence assay of tau isoform 2N4R fibril formation", "assay_type": "biochemical", "details": "compound 100 μM, tau 2N4R 6 μM", "protocol": "as §1"}}, "note": "“Also recorded” adds a separate entry of the source."}
{"compound": "c1cc(Nc2ncnc(Nc3cccc4[nH]ccc34)n2)c2cc[nH]c2c1", "note": "[Compound 10, N2,N4-bis(1H-indol-4-yl)-1,3,5-triazine-2,4-diamine]", "values": [{"measurement": "tau oligomer formation (PICUP, in words)", "setting": "tau isoform 2N4R [1]; compound 50 μM, high molecular weight oligomers around 190 kDa", "result": "inhibited both α-syn and tau oligomer formation"}, {"measurement": "tau isoform 2N4R oligomerization at different concentrations (PICUP)", "setting": "tau isoform 2N4R [1]; compound 3.125 to 50 μM", "result": "effective in reducing oligomerization of α-syn and tau isoform 2N4R in a dose-dependent manner"}, {"measurement": "tau isoform 2N4R fibril ultrastructure (TEM)", "setting": "tau isoform 2N4R [2]", "result": "needle-shaped short fibrils; also recorded: very short needle shaped fibrils admixed with debris"}, {"measurement": "MCC", "setting": "[3]", "result": "≥ 10", "unit": "µM"}, {"measurement": "minimal effective concentration", "setting": "[4]; Neuroblastoma cell, read-out: concentration from which α-syn inclusion body formation is reduced", "result": "≥ 2.5", "unit": "µM"}, {"measurement": "α-syn expression levels (Western blot)", "setting": "[4]; compound 10 μM", "result": "reduced"}, {"measurement": "toxicity (cell confluence, in words)", "setting": "[4]; compound 40 μM", "result": "more intense toxicity"}, {"measurement": "α-syn inclusion formation (punctate YFP signal, in words)", "setting": "[4]; compound 7: 2.5 to 20 μM, compound 10: 2.5 to 40 μM, readout 96 h after plating, vs 0.1% DMSO", "result": "reduced α-syn inclusion formation"}, {"measurement": "α-syn fibril ultrastructure (TEM)", "setting": "α-syn", "result": "a range of shorter fibrils to amorphous protein; also recorded: rare short fibrils"}, {"measurement": "elongation rate of tau isoform 2N4R fibrillization", "setting": "tau isoform 2N4R [5]", "result": "slower elongation rate"}, {"measurement": "tau isoform 2N4R fibrillization (in words)", "setting": "tau isoform 2N4R [5]; heparin 1.5 μM", "result": "markedly inhibited tau isoform 2N4R fibrillization"}]}
